The values below come from patent US20190060298A1, “NEW DRUG FOR THE TREATMENT AND/OR PREVENTION OF DEPRESSIVE DISORDERS” (SORBONNE UNIVERSITE, priority 2013, published 2019).

One test relates to BDNF. The test can be described thus: Serum BDNF assay. Conditions: vulnerable animals vs vulnerable animals treated with vehicle. The format is in vivo, Sprague-Dawley rats. On the procedure: Blood samples (200 μl) were collected from conscious rats at various time points (D-4, D5, D11, D31 at midday). These samples were taken from the tail vein and were collected in Eppendorf tubes. The samples were centrifuged to separate off the serum, which was stored at −20° C. until BDNF analysis. BDNF concentrations were determined at a dilution of 1:25, with a commercial BDNF assay (Promega Corporation), in 96-well plates (Corning Costar® EIA plate), according to the manufacturer's instructions.
Another serum BDNF was carried out. Blood samples (200 μl) of awake rats were collected at different time-points (D-4, D9, D35, D57 at midday) from the vein of the tail into eppendorf tubes. After centrifugation, serum was separated and stored at −20° C. until analysis for BDNF. BDNF concentrations were determined at dilution of 1:25 with a commercial BDNF assay (Promega Corporation), in 96-well plates (Corning Costar® EIA plate), according to the manufacturer's instructions.
Tempol (4-hydroxy-2,2,6,6-tetramethylpiperidine 1-oxyl), which was administered at a dose of 288 μmol/kg/day [Sigma-Aldrich, St Louis, Mo., USA]), was dissolved in distilled water and delivered via ALZET osmotic mini-pumps (2002, Charles River Laboratories, France). […]

A further test has as its system CA3 pyramidal cells. Kind of test: CA3 dendritic architecture in Nrf2-null mice. The format is in vivo. Conditions: Tempol 288 μmol/kg/day, osmotic mini-pump, 4 weeks. As to the method: Nrf2-null mice were backcrossed onto the C57BL/6 J background for seven generations using alternating male and female stock mice from the CNRS TAAM UPS44 (Orléans). The resulting wild-type (Nrf2+/+) and Nrf2−/− mice were genotyped and only male mice at 6 weeks old at the beginning of the experiments were used. The level of oxidative stress in mice was first evaluated through the measure of lipid peroxidation. Lipid peroxidation was assessed by measuring TBARS formation with a commercial assay kit (Cayman Chemical, Ann Arbor, Mich., USA), in accordance with the manufacturer's instructions. TBARS concentration was calculated from an MDA standard curve and normalized.
To examine the depression-like phenotype of Nrf2-null mice, the helplessness behaviour, anhedonia and HPA hyperactivity (corticosterone, and adrenal gland weight) were assessed before and after a chronic mild stress (CMS) protocol. The neuroanatomical morphology of hippocampus in mice was estimated using Golgi Staining procedure. Tempol (4-hydroxy-2,2,6,6-tetramethylpiperidine 1-oxyl, Sigma-Aldrich, St Louis, Mo., USA), which was administered at a dose of 288 μmol/kg/day (Wilcox, 2010), was dissolved in distilled water and delivered via ALZET osmotic mini-pumps (1004, Charles River Laboratories, France). […]

Regarding `CC1(C)CC(O)CC(C)(C)N1[O]` [TEMPOL, 4-hydroxy-2,2,6,6-tetramethylpiperidin-1-oxyl], in the test on BDNF, the “serum BDNF levels” value was “induced the recovery of serum BDNF levels”. For the same molecule, the “dendritic retraction in CA3 pyramidal cells” value with CA3 pyramidal cells is on record as “prevented”.
